How the values were obtained:
[1] = Ratio of Kapp for synthetic poly(dA-dT)]2 oligonucleotide to Kapp for synthetic poly(dG-dC)]2 oligonucleotide
HT-29 = assay: Cytotoxicity against human HT29 cells after 72 hrs; assay type: functional; details: HT-29, 72 h

Structure (SMILES)	Ratio [1]	GI50 (HT-29) [µM]	LC50 (concentration killing 50% of cells) (HT-29) [µM]	TGI (HT-29) [µM]
CCN(CC)CCCNc1ccc(NCCCN(C)CCCNc2ccc(NCCCN(CC)CC)c3c2C(=O)c2cnccc2C3=O)c2c1C(=O)c1ccncc1C2=O	1.7	83	> 100	> 100
CN(C)CCNc1ccc(NCCCN(C)CCCNc2ccc(NCCN(C)C)c3c2C(=O)c2ccncc2C3=O)c2c1C(=O)c1cnccc1C2=O	7.7	> 100	–	–
CN(C)CCCNc1ccc(NCCCN(C)CCCNc2ccc(NCCCN(C)C)c3c2C(=O)c2cnccc2C3=O)c2c1C(=O)c1ccncc1C2=O	2.4	2	> 100	7.9

— ChEMBL document CHEMBL1141566, “Synthesis and antitumor evaluation of bis aza-anthracene-9,10-diones and bis aza-anthrapyrazole-6-ones” (2008)
